We go through two molecules from publication PMC8244865, “Recruitment of phospholipase Cγ1 to the non-structural membrane protein pK15 of Kaposi Sarcoma-associated herpesvirus promotes its Src-dependent phosphorylation” (PLoS Pathogens, 2021).

For test [1], the system named is PLCγ1 nSH2 domain (in tSH2 aa 545–772). In words: crystal structure with truncated PLCγ1 tSH2, nSH2 site. To be noted: truncated tSH2 (aa 545–772), resolution 2.1 Å. Type of test: binding. As for the experimental part:
A shortened version of the PLCγ1 tSH2 domain (aa 545–772) lacking the linker peptide connecting the PLCγ1 cSH2 and SH3 domains (see Results section) was cloned into a pET28a vector carrying an N-terminal His Tag and a SUMO sequence. Expression was carried out in E. coli and the protein was purified to homogeneity as described above. His-Tag and SUMO were proteolytically removed using SUMO protease (SIGMA) following the manufacturer’s instructions, and the cleaved protein purified on a HisTrap column. Fractions containing cleaved protein were further purified by size exclusion chromatography (SEC) using a Superdex 75 26/600 column (GE Healthcare) equilibrated with 50mM Tris pH7.5, 150mM NaCl and 1mM TCEP buffer. The purified protein in SEC buffer was added to lyophilized phosphorylated 12mer pK15 peptide (DDLpYEEVLFPRN) in a 1:8 molar ratio (Protein: peptide) at a final concentration of 3mg/ml of peptide and 7.5mg/ml protein. Crystals were grown at 293 K using the sitting-drop vapor diffusion method in drops containing 1μl protein solution mixed with 1 μL reservoir solution containing 30% PEG 4000, 0.1M TrisHCl pH 8.5 and 0.2M sodium acetate. The crystals were flash frozen in the mother liquor containing 30% ethylene glycol and diffraction data were collected at P13 at DESY-Hamburg. Data were processed, scaled and reduced with XDS [75], Pointless and programs from the CCP4 suite. […]

In the next test the test system is PLCγ1 SA R586L+R694L. Briefly: GST-pulldown, PLCγ1 SA double mutant. Type of test: binding. To be noted: phosphorylated; HEK 293T. As for the experimental part: Fig 3 Contribution of individual PLCγ1 SH2 domains to the interaction with phosphorylated pK15. The pK15 CT fused to GST, its Y^481F mutant, or GST alone were bound to glutathione beads, phosphorylated in vitro (+) or left unphosphorylated (-), and a GST pulldown was performed 32h after transfection into HEK-293T cells of expression vectors for S-tagged full-length PLCγ1 (FL) (A) or PLCγ1 SA (B) containing the indicated mutations. (C) pK15 CT WT, its Y^481F mutant or GST were bound to glutathione beads, phosphorylated in vitro (+) or left unphosphorylated (-), and used for a GST pulldown assay 32h after transfecting HEK 293T cells with expression vectors for S-tagged individual PLCγ1 nSH2 or cSH2 domains. […]
HEK293T cells were washed once with cold PBS 30 hours after transfection, lysed in IP buffer (50 mM Tris pH7.6, 60 mM NaCl, 6.25 mM EDTA, 1% (v/v) glycerol, 0.04% (v/v) NP-40) on ice for 30 minutes, sonicated shortly and cleared by centrifugation for 10 minutes at 20.000g, 4°C. […] Beads were then washed 5 times in 500 μl IP buffer (or for purified proteins IP buffer with 200 mM NaCl), suspended in 10 μl of 5x Laemmli sample buffer (60 mM Tris pH6.8, 24% (v/v) glycerol, 2% (v/v) SDS, 5% (v/v) β-mercaptoethanol, 0.01% Bromphenol Blue) and analysed by western blot.

In the case of “DDLpYEEVLFPRN [pK15 12mer, phosphorylated peptide representing the last 12 amino acids of pK15 CT (DDLp…)]”, the “binding site occupancy in crystal structure” value in test [1] is recorded as “at lower occupancy peptide binding to the nSH2 domain was also observed”.

B1: pK15 CT^WT: pK15 cytoplasmic tail fused to GST at its N-terminal end, phosphorylated in vitro by Src (protein)
chain: SQLLNEVELQEVNRDPPNVFGYASILVSGAEESREPSPQPDQSGMSILRVDGGSAFRIDTAQAATQPTDDLYEEVLFPRN
modifications: tyrosine-phosphorylated in vitro by Src; sites not stated for this construct; left off: GST, N-terminal, kept
Regarding B1, in the test on PLCγ1 SA R586L+R694L, the “binding of double mutant (GST-pulldown)” value is “completely eliminated the binding”.
